Test results: PubChem BioAssay AID328 (DTP/NCI, 2004)
Several values for one entry are separate records, joined by “and”; a condition that tells them apart may be missing. Identical values can stand only once. Inconclusive results and toxic doses are left out. Rule for the calls: active = survival T/C of 150% or more; inactive = T/C below 125% in these data.

Tested on: BDF1 mice, P388 leukemia ip, median survival T/C
Test: NCI In Vivo Anticancer Drug Screen. Data for tumor model P388 Leukemia (intraperitoneal) in B6D2F1 (BDF1) mice
Details: endpoint: median survival time, higher = longer survival
Description: The antitumor activity of compounds was measured in mice bearing transplantable tumors. Survival or tumor size were measured and the results are expressed as the measurement made in the treated group (T) divided by the measurement made in the vehicle treated control group (C). The tumor model used in this assay is P388 Leukemia (intraperitoneal) in B6D2F1 (BDF1) mice

[1] = dose: 100.0 mg/kg/injection, schedule: Q01DX009 (ip), vehicle: saline with Tween-80
[2] = dose: 100.0 mg/kg/injection, schedule: Q04DX003 (ip), vehicle: saline with Tween-80
[3] = dose: 200.0 mg/kg/injection, schedule: Q01DX009 (ip), vehicle: saline with Tween-80
[4] = dose: 200.0 mg/kg/injection, schedule: Q04DX003 (ip), vehicle: saline with Tween-80
[5] = dose: 400.0 mg/kg/injection, schedule: Q04DX003 (ip), vehicle: saline with Tween-80
[6] = dose: 100.0 mg/kg/injection, schedule: Q01DX009 (ip), vehicle: Klucel (hydroxypropylcellulose) (HPC)
[7] = dose: 200.0 mg/kg/injection, schedule: Q01DX009 (ip), vehicle: Klucel (hydroxypropylcellulose) (HPC)
[8] = dose: 400.0 mg/kg/injection, schedule: Q01DX009 (ip), vehicle: Klucel (hydroxypropylcellulose) (HPC)
[9] = dose: 100.0 mg/kg/injection, schedule: Q04DX003 (ip), vehicle: Klucel (hydroxypropylcellulose) (HPC)
[10] = dose: 200.0 mg/kg/injection, schedule: Q04DX003 (ip), vehicle: Klucel (hydroxypropylcellulose) (HPC)
[11] = dose: 400.0 mg/kg/injection, schedule: Q04DX003 (ip), vehicle: Klucel (hydroxypropylcellulose) (HPC)
[12] = dose: 50.0 mg/kg/injection, schedule: Q01DX009 (ip), vehicle: saline with Tween-80

Measured: T/C

ClCCN(CCCl)c1cc(OCc2ccccc2)cc(OCc2ccccc2)c1
inactive: dose: 6.25 mg/kg/injection, schedule: Q01DX009 (ip), vehicle: water 91 % of control | dose: 12.5 mg/kg/injection, schedule: Q01DX009 (ip), vehicle: water 88 % of control | dose: 25.0 mg/kg/injection, schedule: Q01DX009 (ip), vehicle: water 86 % of control | dose: 25.0 mg/kg/injection, schedule: Q04DX003 (ip), vehicle: water 91 % of control | dose: 50.0 mg/kg/injection, schedule: Q01DX009 (ip), vehicle: water 88 % of control | dose: 50.0 mg/kg/injection, schedule: Q04DX003 (ip), vehicle: water 89 % of control | dose: 100.0 mg/kg/injection, schedule: Q01DX009 (ip), vehicle: water 98 % of control | dose: 100.0 mg/kg/injection, schedule: Q04DX003 (ip), vehicle: water 121 % of control | dose: 200.0 mg/kg/injection, schedule: Q01DX009 (ip), vehicle: water 92 % of control and 97 % of control | dose: 200.0 mg/kg/injection, schedule: Q04DX003 (ip), vehicle: water 97 % of control | dose: 400.0 mg/kg/injection, schedule: Q04DX003 (ip), vehicle: water 89 % of control

COc1cc2ccnc(Cc3ccccc3)c2cc1OC
inactive: [1] 109 % of control | [2] 109 % of control | [3] 104 % of control | [4] 109 % of control | [5] 109 % of control

N#Cc1c(O)oc2cccnc12
inactive: dose: 50.0 mg/kg/injection, schedule: Q01DX005 (ip), vehicle: saline with Tween-80 92 % of control | dose: 100.0 mg/kg/injection, schedule: Q01DX005 (ip), vehicle: saline with Tween-80 97 % of control | dose: 200.0 mg/kg/injection, schedule: Q01DX005 (ip), vehicle: saline with Tween-80 103 % of control

CC(=N/NC(N)=S)/C(C)=N/NC(N)=S
inactive: [6] 100 % of control | [7] 100 % of control | [8] 100 % of control

O=C(c1ccccc1)C1C(c2ccccc2)C2(CCCCC2=O)C(c2ccccc2)CC1(O)c1ccccc1 (stereo not given)
inactive: dose: 25.0 mg/kg/injection, schedule: Q01DX001 (ip), vehicle: Klucel (hydroxypropylcellulose) (HPC) 88 % of control

Cc1ccc(NC(=S)N2CCC(CCCC3CCN(C(=S)Nc4ccc(C)c(C)c4)CC3)CC2)cc1C
inactive: [6] 100 % of control | [9] 95 % of control | [7] 90 % of control | [10] 95 % of control | [8] 90 % of control | [11] 100 % of control

COc1ccc(/C=C/C(=O)c2ccc(Cl)cc2)c(OC)c1
inactive: dose: 25.0 mg/kg/injection, schedule: Q01DX009 (ip), vehicle: saline with Tween-80 95 % of control | [12] 100 % of control | [1] 109 % of control | [2] 109 % of control | [3] 100 % of control | [4] 95 % of control | [5] 90 % of control

CCN1c2ccccc2C(Cl)(c2ccc(N(C)C)cc2)c2ccccc21
inactive: dose: 3.75 mg/kg/injection, schedule: Q01DX009 (ip), vehicle: saline 118 % of control | dose: 6.25 mg/kg/injection, schedule: Q04DX003 (ip), vehicle: saline 100 % of control | dose: 7.5 mg/kg/injection, schedule: Q01DX009 (ip), vehicle: saline 118 % of control | dose: 12.5 mg/kg/injection, schedule: Q04DX003 (ip), vehicle: saline 116 % of control | dose: 25.0 mg/kg/injection, schedule: Q04DX003 (ip), vehicle: saline 116 % of control

O=C1NN=C(c2ccc(Cl)cc2)CS1
inactive: [12] 103 % of control | [1] 103 % of control

COc1ccc2nccc(C=O)c2c1
inactive: [1] 116 % of control | [3] 114 % of control | dose: 400.0 mg/kg/injection, schedule: Q01DX009 (ip), vehicle: saline with Tween-80 117 % of control

CCCSCC(C)C
inactive: [2] 100 % of control | [4] 109 % of control | [5] 90 % of control

O=C1CCC(N2C(=O)c3ccccc3C2=O)C(=O)N1 (stereo not given)
inactive: dose: 100.0 mg/kg/injection, schedule: Q01DX010 (ip), vehicle: saline 96 % of control | dose: 200.0 mg/kg/injection, schedule: Q01DX010 (ip), vehicle: saline 96 % of control | dose: 400.0 mg/kg/injection, schedule: Q01DX010 (ip), vehicle: saline 92 % of control | dose: 800.0 mg/kg/injection, schedule: Q01DX010 (ip), vehicle: saline 92 % of control

CCC1=C(c2ccc(OC)cc2)CCC(C(=O)O)C1C (stereo not given)
inactive: dose: 3.0 mg/kg/injection, schedule: Q01DX010 (sc), vehicle: steriod suspending solution 90 % of control | dose: 6.0 mg/kg/injection, schedule: Q01DX010 (sc), vehicle: steriod suspending solution 105 % of control | dose: 12.0 mg/kg/injection, schedule: Q01DX010 (sc), vehicle: steriod suspending solution 100 % of control | dose: 24.0 mg/kg/injection, schedule: Q01DX010 (sc), vehicle: steriod suspending solution 95 % of control | dose: 48.0 mg/kg/injection, schedule: Q01DX010 (sc), vehicle: steriod suspending solution 100 % of control | dose: 96.0 mg/kg/injection, schedule: Q01DX010 (sc), vehicle: steriod suspending solution 110 % of control | dose: 192.0 mg/kg/injection, schedule: Q01DX010 (sc), vehicle: steriod suspending solution 105 % of control

CC(Cl)(Cl)CC(O)(C(F)(F)F)C(F)(F)F
inactive: dose: 50.0 mg/kg/injection, schedule: Q04DX003 (ip), vehicle: saline with Tween-80 95 % of control | [2] 90 % of control | [4] 90 % of control

C[C@@H]1CC2=CC(=O)C=C[C@]2(C)[C@H]2CC[C@@]3(C)[C@@H](CC[C@]3(C)O)[C@H]12
inactive: dose: 50.0 mg/kg/injection, schedule: Q01DX009 (sc), vehicle: steriod suspending solution 95 % of control | [6] 88 % of control | dose: 100.0 mg/kg/injection, schedule: Q01DX009 (sc), vehicle: steriod suspending solution 90 % of control | [9] 91 % of control | [7] 100 % of control | dose: 200.0 mg/kg/injection, schedule: Q01DX009 (sc), vehicle: steriod suspending solution 86 % of control | [10] 95 % of control | [8] 88 % of control | [11] 91 % of control

O=C1C(=C(C(F)(F)F)C(F)(F)F)C2CCC1C2 (stereo not given)
inactive: dose: 6.25 mg/kg/injection, schedule: Q04DX003 (ip), vehicle: saline with Tween-80 110 % of control | dose: 12.5 mg/kg/injection, schedule: Q04DX003 (ip), vehicle: saline with Tween-80 100 % of control | dose: 25.0 mg/kg/injection, schedule: Q04DX003 (ip), vehicle: saline with Tween-80 90 % of control

CC(=O)OC1CC(OC2C(O)CC(OC3C(O)CC(OC4CCC5(C)C(CCC6C5CCC5(C)C(C7=CC(=O)OC7)CCC65O)C4)OC3C)OC2C)OC(C)C1OC1OC(CO)C(O)C(O)C1O (stereo not given)
inactive: dose: 5.0 mg/kg/injection, schedule: Q01DX010 (ip), vehicle: carboxymethylcellulose (CMC) 90 % of control

CC(=O)Oc1ccc(C2C3=C(COC3=O)CC3=C2C(=O)OC3)cc1
inactive: dose: 100.0 mg/kg/injection, schedule: Q01DX007 (ip), vehicle: saline with Tween-80 95 % of control | [2] 100 % of control | dose: 200.0 mg/kg/injection, schedule: Q01DX007 (ip), vehicle: saline with Tween-80 90 % of control | [4] 110 % of control | dose: 400.0 mg/kg/injection, schedule: Q01DX007 (ip), vehicle: saline with Tween-80 100 % of control | [5] 100 % of control

CCCCC(C(=O)OCC)C(CCC1CCCCC1)(C(=O)OCC)C(=O)OCC (stereo not given)
inactive: [9] 91 % of control | [10] 87 % of control | [11] 100 % of control
